Source: patent publication US10004701B2, “Methods and compositions for treating infection” (UNIVERSITY OF ROCHESTER, priority 2012, dated 2018)
Counter-ions that a name gives are not always drawn. Like-named read-outs stand apart in the source and are kept apart here.

Tests used:
Assay in all cases: AK assay 384-well format, Prestwick library screening
P. aeruginosa = assay type: cell-based, Pseudomonas aeruginosa; conditions: 50 μM final drug concentration; for fold induction at 50 µM: Pseudomonas aeruginosa, 3 h
E. faecium = assay type: cell-based, Enterococcus faecium; conditions: 50 μM final drug concentration; for fold induction at 50 µM: Enterococcus faecium, 3 h
E. cloacae = assay type: cell-based, Enterobacter cloacae; conditions: 50 μM final drug concentration; for fold induction at 50 µM: Enterobacter cloacae, 3 h
E. coli = assay type: cell-based, Escherichia coli; conditions: 50 μM final drug concentration; for fold induction at 50 µM: Escherichia coli, 3 h
[1] = system: A. baumannii strain 98-37-09; assay type: cell-based, Acinetobacter baumannii; conditions: 50 μM final drug concentration; for fold induction at 50 µM: Acinetobacter baumannii, 983709, 3 h
[2] = system: S. aureus strain USA300-0114; assay type: cell-based, Staphylococcus aureus; conditions: 50 μM final drug concentration; for fold induction at 50 µM: Staphylococcus aureus, USA300, 3 h
K. pneumoniae = assay type: cell-based, Klebsiella pneumoniae; conditions: 50 μM final drug concentration; for fold induction at 50 µM: Klebsiella pneumoniae, 3 h
[3] = 384-well format, cutoff for positive-scoring molecules 3-fold increase, read-out: AK-based Prestwick Library Screening Results, P. aeruginosa (increase in extracellular AK activity)
[4] = 384-well format, cutoff for positive-scoring molecules 3-fold increase, read-out: AK-based Prestwick Library Screening Results, E. faecium (increase in extracellular AK activity)
[5] = 384-well format, cutoff for positive-scoring molecules 3-fold increase, read-out: AK-based Prestwick Library Screening Results, E. cloacae (increase in extracellular AK activity)
[6] = 384-well format, cutoff for positive-scoring molecules 3-fold increase, read-out: AK-based Prestwick Library Screening Results, E. coli (increase in extracellular AK activity)
[7] = 384-well format, cutoff for positive-scoring molecules 3-fold increase, read-out: AK-based Prestwick Library Screening Results, A. baumannii (increase in extracellular AK activity)
[8] = 384-well format, cutoff for positive-scoring molecules 3-fold increase, read-out: AK-based Prestwick Library Screening Results, S. aureus (increase in extracellular AK activity)
[9] = 384-well format, cutoff for positive-scoring molecules 3-fold increase, read-out: AK-based Prestwick Library Screening Results, K. pneumoniae (increase in extracellular AK activity)
[10] = planktonic P. aeruginosa, 384-well, cutoff for positive-scoring molecules 3-fold increase, read-out: AK-based Prestwick Library Screening Results: P. aeruginosa (increase in extracellular AK activity)
[11] = planktonic E. faecium, 384-well, cutoff for positive-scoring molecules 3-fold increase, read-out: AK-based Prestwick Library Screening Results: E. faecium (increase in extracellular AK activity)
[12] = planktonic E. cloacae, 384-well, cutoff for positive-scoring molecules 3-fold increase, read-out: AK-based Prestwick Library Screening Results: E. cloacae (increase in extracellular AK activity)
[13] = planktonic E. coli, 384-well, cutoff for positive-scoring molecules 3-fold increase, read-out: AK-based Prestwick Library Screening Results: E. coli (increase in extracellular AK activity)
[14] = planktonic A. baumannii, 384-well, cutoff for positive-scoring molecules 3-fold increase, read-out: AK-based Prestwick Library Screening Results: A. baumannii (increase in extracellular AK activity)
[15] = planktonic S. aureus, 384-well, cutoff for positive-scoring molecules 3-fold increase, read-out: AK-based Prestwick Library Screening Results: S. aureus (increase in extracellular AK activity)
[16] = planktonic K. pneumoniae, 384-well, cutoff for positive-scoring molecules 3-fold increase, read-out: AK-based Prestwick Library Screening Results: K. pneumoniae (increase in extracellular AK activity)

CC1=CC(=O)C2=C(C)CC[C@@H]3[C@H](OC(=O)[C@H]3C)[C@@H]12 [Leucomisine]
AK-based Prestwick library screening result, P. aeruginosa (fold increase in extracellular AK activity) (P. aeruginosa; planktonic P. aeruginosa, positive cutoff 3-fold increase): 1.1
AK-based Prestwick library screening result, E. faecium (fold increase in extracellular AK activity) (E. faecium; planktonic E. faecium, positive cutoff 3-fold increase): 1.1
AK-based Prestwick library screening result, E. cloacae (fold increase in extracellular AK activity) (E. cloacae; planktonic E. cloacae, positive cutoff 3-fold increase): 1.6
AK-based Prestwick library screening result, E. coli (fold increase in extracellular AK activity) (E. coli; planktonic E. coli, […]): 1.3
AK-based Prestwick library screening result, A. baumannii (fold increase in extracellular AK activity) ([1]; planktonic A. baumannii, positive cutoff 3-fold increase): 1.0
AK-based Prestwick library screening result, S. aureus (fold increase in extracellular AK activity) ([2]; planktonic S. aureus, positive cutoff 3-fold increase): 0.9
AK-based Prestwick library screening result, K. pneumoniae (fold increase in extracellular AK activity) (K. pneumoniae; planktonic K. pneumoniae, positive cutoff 3-fold increase): 1.0

c1ccc([C@H]2CN3CCSC3=N2)cc1 [Levamisole hydrochloride]
fold induction at 50 µM (P. aeruginosa; [3]): 1
fold induction at 50 µM (E. faecium; [4]): 1
fold induction at 50 µM (E. cloacae; [5]): 1
fold induction at 50 µM (E. coli; [6]): 1
fold induction at 50 µM [1, 7]: 1.1
fold induction at 50 µM [2, 8]: 0.9
fold induction at 50 µM (K. pneumoniae; [9]): 0.7

C[C@@H]1CN([C@H]2CC[C@](C#N)(c3ccc(F)cc3)CC2)CC[C@]1(C(=O)O)c1ccccc1 [Levocabastine hydrochloride]
fold induction at 50 µM (P. aeruginosa; planktonic P. aeruginosa, positive cutoff 3-fold increase, read-out: AK-based Prestwick library screening result, P. aeruginosa (fold increase in extracellular AK activity)): 1
fold induction at 50 µM (E. faecium; planktonic E. faecium, positive cutoff 3-fold increase, read-out: AK-based Prestwick library screening result, E. faecium (fold increase in extracellular AK activity)): 1
fold induction at 50 µM (E. cloacae; planktonic E. cloacae, positive cutoff 3-fold increase, read-out: AK-based Prestwick library screening result, E. cloacae (fold increase in extracellular AK activity)): 1.6
fold induction at 50 µM (E. coli; planktonic E. coli, positive cutoff 3-fold increase, read-out: AK-based Prestwick library screening result, E. coli (fold increase in extracellular AK activity)): 1.1
fold induction at 50 µM ([1]; planktonic A. baumannii, positive cutoff 3-fold increase, read-out: AK-based Prestwick library screening result, A. baumannii (fold increase in extracellular AK activity)): 1.2
fold induction at 50 µM ([2]; planktonic S. aureus, positive cutoff 3-fold increase, read-out: AK-based Prestwick library screening result, S. aureus (fold increase in extracellular AK activity)): 1.1
fold induction at 50 µM (K. pneumoniae; planktonic K. pneumoniae, positive cutoff 3-fold increase, read-out: AK-based Prestwick library screening result, K. pneumoniae (fold increase in extracellular AK activity)): 1.1

N[C@@H](Cc1ccc(O)c(O)c1)C(=O)O [Levodopa]
fold induction at 50 µM (P. aeruginosa; [3]): 0.5
fold induction at 50 µM (E. faecium; [4]): 0.8
fold induction at 50 µM (E. cloacae; [5]): 0.8
fold induction at 50 µM (E. coli; [6]): 0.6
fold induction at 50 µM [1, 7]: 0.7
fold induction at 50 µM [2, 8]: 0.5
fold induction at 50 µM (K. pneumoniae; [9]): 0.6

C[C@H](N)[C@H](O)c1ccc(O)c(O)c1 [Levonordefrin]
fold induction at 50 µM (P. aeruginosa; planktonic, […], read-out: AK-based Prestwick Library Screening Results, P. aeruginosa (fold increase in extracellular AK activity)): 0.7
fold induction at 50 µM (E. faecium; planktonic, […], read-out: AK-based Prestwick Library Screening Results, E. faecium (fold increase in extracellular AK activity)): 1
fold induction at 50 µM (E. cloacae; planktonic, […], read-out: AK-based Prestwick Library Screening Results, E. cloacae (fold increase in extracellular AK activity)): 0.7
fold induction at 50 µM (E. coli; planktonic, […], read-out: AK-based Prestwick Library Screening Results, E. coli (fold increase in extracellular AK activity)): 0.7
fold induction at 50 µM ([1]; planktonic, […], read-out: AK-based Prestwick Library Screening Results, A. baumannii (fold increase in extracellular AK activity)): 0.8
fold induction at 50 µM ([2]; planktonic, […], read-out: AK-based Prestwick Library Screening Results, S. aureus (fold increase in extracellular AK activity)): 0.6
fold induction at 50 µM (K. pneumoniae; planktonic, […], read-out: AK-based Prestwick Library Screening Results, K. pneumoniae (fold increase in extracellular AK activity)): 0.8

CCC(=O)O[C@@](Cc1ccccc1)(c1ccccc1)[C@@H](C)CN(C)C [Levopropoxyphene napsylate]
fold induction at 50 µM (P. aeruginosa; […], read-out: AK-based Prestwick Library Screening Results, P. aeruginosa (fold increase in extracellular AK activity)): 0.7
fold induction at 50 µM (E. faecium; […], read-out: AK-based Prestwick Library Screening Results, E. faecium (fold increase in extracellular AK activity)): 1
fold induction at 50 µM (E. cloacae; […], read-out: AK-based Prestwick Library Screening Results, E. cloacae (fold increase in extracellular AK activity)): 0.7
fold induction at 50 µM (E. coli; […], read-out: AK-based Prestwick Library Screening Results, E. coli (fold increase in extracellular AK activity)): 0.6
fold induction at 50 µM ([1]; […], read-out: AK-based Prestwick Library Screening Results, A. baumannii (fold increase in extracellular AK activity)): 0.7
fold induction at 50 µM ([2]; […], read-out: AK-based Prestwick Library Screening Results, S. aureus (fold increase in extracellular AK activity)): 0.6
fold induction at 50 µM (K. pneumoniae; […], read-out: AK-based Prestwick Library Screening Results, K. pneumoniae (fold increase in extracellular AK activity)): 0.6

CCN(CC)CC(=O)Nc1c(C)cccc1C [Lidocaine hydrochloride]
fold induction at 50 µM (P. aeruginosa; [10]): 1.1
fold induction at 50 µM (E. faecium; [11]): 1.2
fold induction at 50 µM (E. cloacae; [12]): 1.3
fold induction at 50 µM (E. coli; [13]): 1.3
fold induction at 50 µM [1, 14]: 1.1
fold induction at 50 µM [2, 15]: 1.1
fold induction at 50 µM (K. pneumoniae; [16]): 1.1

Cc1cccc(C)c1NC(=O)CN1CCN(CCCC(c2ccc(F)cc2)c2ccc(F)cc2)CC1 [Lidoflazine]
fold induction at 50 µM (P. aeruginosa; planktonic, cutoff for positive 3-fold increase, read-out: AK-based Prestwick Library Screening Results, P. aeruginosa (fold increase in extracellular AK activity)): 1.3
fold induction at 50 µM (E. faecium; planktonic, cutoff for positive 3-fold increase, read-out: AK-based Prestwick Library Screening Results, E. faecium (fold increase in extracellular AK activity)): 1
fold induction at 50 µM (E. cloacae; planktonic, cutoff for positive 3-fold increase, read-out: AK-based Prestwick Library Screening Results, E. cloacae (fold increase in extracellular AK activity)): 1.4
fold induction at 50 µM (E. coli; planktonic, cutoff for positive 3-fold increase, read-out: AK-based Prestwick Library Screening Results, E. coli (fold increase in extracellular AK activity)): 1.4
fold induction at 50 µM ([1]; planktonic, cutoff for positive 3-fold increase, read-out: AK-based Prestwick Library Screening Results, A. baumannii (fold increase in extracellular AK activity)): 2.9
fold induction at 50 µM ([2]; planktonic, cutoff for positive 3-fold increase, read-out: AK-based Prestwick Library Screening Results, S. aureus (fold increase in extracellular AK activity)): 1.4
fold induction at 50 µM (K. pneumoniae; planktonic, cutoff for positive 3-fold increase, read-out: AK-based Prestwick Library Screening Results, K. pneumoniae (fold increase in extracellular AK activity)): 1.1

CCC[C@@H]1C[C@@H](C(=O)N[C@@H]([C@H]2O[C@H](SC)[C@H](O)[C@@H](O)[C@H]2O)[C@@H](C)O)N(C)C1 [Lincomycin hydrochloride]
fold induction at 50 µM (P. aeruginosa; [10]): 1.2
fold induction at 50 µM (E. faecium; [11]): 1.3
fold induction at 50 µM (E. cloacae; [12]): 1.3
fold induction at 50 µM (E. coli; [13]): 0.9
fold induction at 50 µM [1, 14]: 1.2
fold induction at 50 µM [2, 15]: 7.9
fold induction at 50 µM (K. pneumoniae; [16]): 0.9
